The text below walks through data of patent EP4635565A1, “PRENYLATED TETRAHYDROQUINOLINES AND QUINOLINES WITH PPAR AGONIST ACTIVITY” (Fundación para la Investigación del Hospital Clínico de la …, priority 2024, dated 2025).

One assay has as its system PDK4-(PPRE)3-Luc+. The assay can be described thus: Pdk4 transactivation assay (PDK4-(PPRE)3-Luc+ reporter in L929sA cells). The class given is cell-based, mouse. To be noted: 10 µM, 6 h. The protocol: Transfection of L929sA cells stably expressing reporter genes was performed using the calcium phosphate precipitation protocol according to standard procedures with a 10-fold excess of the plasmid of interest in a pGL3-basic vector containing Luc+, a modified firefly luciferase gene (Promega Biotec, Madison, Wis,) USA. USA). The Pdk4 reporter was created using an enhancer site linked to the Pdk4 promoter containing three PPRE extracted from mouse liver genomic DNA. The aforementioned plasmid construct was then introduced into a pMet7 backbone, which had previously been cloned with a luciferase gene site, using Xhol and Sacl cut sites. The resulting construct was subjected to geneticin (neomycin) antibiotic selection to isolate individual clones. A stable cell line, designated Pdk4-Luc+, was subsequently established in L929sA cells, which also contained a constitutively expressed galactosidase reporter and a neomycin selection cassette.
(§1) Pyruvate Dehydrogenase Kinase 4 gene (Pdk4), a well-known target gene of PPARs, encodes a protein that regulates the phosphorylation and inactivation of the pyruvate dehydrogenase complex in response to physiological conditions. This response switches the energy source from glucose to fatty acids to maintain blood glucose levels to, thereby, increase lipid metabolism. Because it is a well-known target gene of PPARs, the effect of the 2- and 3-prenylated esters of tetrahydroquinolines and quinolines on a Pdk4 region reported to bind PPARα, was evaluated. The L929sA cells that were stably transfected with a PDK4-(PPRE)3-Luc+ reporter gene construct were used.

In assay [1] the test system is TNFα-induced proinflammatory genes. Nature of the assay: TNFα-induced pro-inflammatory gene expression by RT-qPCR in L929sA WT cells. The class given is cell-based, mouse. To be noted: 10 µM for 1 h, then TNFa, total induction time 6 h. The protocol: (§2) RNA was isolated using the RNeasy Purification Kit (Qiagen) according to the manufacturer's instructions. cDNA was synthesised using a PrimeScript kit (Takara). RT-qPCR was performed using Light Cycler 480 SYBR Green I Master Mix (Roche).
PPARs play crucial roles in controlling inflammatory responses. NF-κB is a transcription factor that plays a pivotal role in the expression of multiple genes involved in the immune and inflammatory responses. To study the potential anti-inflammatory effects of the tetrahydroquinolines and quinolines of the invention, the NF-κB-dependent physiological human IL-8 promoter construct, p1481.IL8P-Luc+, which is stably integrated into L929sA cells, was tested. After transfection, cells were treated at 10 µM with 5a, 5b, 8a, or 8b prior to TNFa stimulation. […] Given the significant decrease in NF-κB-IL8P-Luc+ reporter gene activity observed after treatment with the 2- or 3-prenylated tetrahydroquinolines 5a and 5b and the 3-prenylated quinoline 8b, their potential anti-inflammatory effects at the transcriptional level for other inflammatory mediators was evaluated. To achieve this, the L929sA WT cells were treated with 5a, 5b and 8b at 10 µM for 1 h, followed by TNFa stimulation for a total induction time of 6 h. The expression of inflammatory genes was evaluated by RT-qPCR.
Background: In qPCR the cycle at which signal appears reflects the starting amount.

The subject of the next assay is ob/ob mice. Nature of the assay: Gene expression (qPCR) in liver and epididymal white adipose tissue of ob/ob mice. To be noted: epididymal white adipose tissue and/or liver of ob/ob mice, 10 mg/kg/day, 15 days orally. The class given is in vivo. On the procedure:
Animal studies were carried out in accordance with Directive 2010/63/EU for experimentation on animals. The handling of the animals and the experimental protocols were approved by the Animal Experimentation Ethics Committee of the University of Valencia (Protocol No. A1469445706311). Six-week-old male ob/ob mice (C57BL/6.Cg-Lepob/J) were supplied by Charles River Laboratories International (Wilmington, MA). Blood samples were collected from mice fasted for 6 hours to determine basal blood glucose levels. The animals, randomly divided into two groups (N ≈ 10-11 per group), were treated daily with vehicle (1% hydroxyethyl cellulose, Sigma-Aldrich) or with tetrahydroquinoline 5a at 10 mg/kg/day, for 15 days orally. After 15 days of treatment, and 6 h of fasting, the mice were anesthetized by inhalation of isoflurane and blood samples were collected in tubes with heparin or EDTA by intracardiac puncture. Plasma samples were obtained and stored at -80°C. Liver and epididymal white adipose tissue were removed and part of both organs were quickly frozen in liquid N2 for qPCR studies.
Gene expression analysis was carried out by real-time qPCR. To this end, total RNA was extracted from liver and epididymal white adipose tissue biopsies using TRIzol reagent (Invitrogen, Carlsbad, CA, USA). The isolated RNA was retro-transcribed using the Maxima First-Strand kit and amplified with a Luminaris Color qPCR MasterMIX (Fermentas, Whaltham, MA, USA) in a 7900 FastSystem thermal cycler. The mRNA levels were normalized to the expression of the constitutive gene cyclophilin.

The target of the next assay is T1, hPPARα (Homo sapiens, UniProt Q07869).
T1 sequence (Q07869 167-468): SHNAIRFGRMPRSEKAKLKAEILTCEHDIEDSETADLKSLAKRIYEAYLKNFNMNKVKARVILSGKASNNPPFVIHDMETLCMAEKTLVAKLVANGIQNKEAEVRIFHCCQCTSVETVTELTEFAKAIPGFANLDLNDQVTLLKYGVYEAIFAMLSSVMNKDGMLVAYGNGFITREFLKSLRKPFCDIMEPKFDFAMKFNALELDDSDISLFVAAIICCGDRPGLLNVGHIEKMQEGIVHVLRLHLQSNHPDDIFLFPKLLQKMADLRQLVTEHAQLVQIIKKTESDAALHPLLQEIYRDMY
Nature of the assay: PPAR transactivation assay, human chimeric PPAR/Gal4 reporter luciferase system in Cos-7 cells (PPARα). The class given is cell-based. The protocol:
Transfections were stopped after 16 h by adding DMEM/10% FCS. Cells were detached with trypsin, re-seeded in 96-well plates for 6 h in DMEM/10% FCS, and incubated for 24 h in DMEM/0.2% FCS with increasing concentrations of the test compounds or vehicle (DMSO, 0.1% final concentration). At the end of the experiment, cells were washed once with ice-cold PBS, lysed, and luciferase and β-galactosidase activities were measured. Luciferase activity was normalised to that of the internal control, β-galactosidase. All transfection experiments were performed at least five times.
EC50 values against human PPARα/Gal4, PPARβ/δ/Gal4 and PPARγ/Gal4 receptors.

Another assay relates to Pdk4. Nature of the assay: Pdk4 mRNA expression by RT-qPCR in L929sA WT cells. The class given is cell-based, mouse. To be noted: 10 µM, 6 h. The protocol:
as §2, §1

The subject of assay [2] is hPPARα, hPPARβ/δ, and hPPARγ. The assay can be described thus: PPAR transactivation assays, agonist profile over the three isoforms. To be noted: always with partial activity on the PPARγ isoform.

What is called EC50 is the concentration that produces a half-maximal response. Higher therefore signals weaker potency. Consider `CCOC(=O)CC/C(C)=C/CCC1CCc2cc(OCc3ccccc3)ccc2N1C` (stereo not shown) [Compound 5a, Ethyl (E)-7-(6-(benzyloxy)-1-methyl-1,2,3,4-tetrahydroquinolin-2-yl)-4-methylhept-4-enoate], for which the “transactivation of the PDK4-Luc+ indicator” value in the assay with PDK4-(PPRE)3-Luc+ (L929sA cells, compared to GW7647 at 1 µM) is “increased the transactivation of the PDK4-Luc+ indicator”. The “maximal transactivation response compared with GW7647” value in the assay on PDK4-(PPRE)3-Luc+ (GW7647 at 1 µM as positive control) is listed as “outperformed the maximal activity of the prior art compound GW7647”. Also, the “transcription of TNFα-induced proinflammatory genes” value in assay [1] is “downregulated the transcription of TNFα-induced proinflammatory genes such as Cc/5 and II-6”. In addition, in the assay with ob/ob mice, the “expression of Acox1” value is “increased”, the “expression of Cpt1a” value is given as “increased” and the “expression of Pdk4” value is recorded as “increased”. Further, at hPPARα, the EC50 came to 3.6 µM. On hPPARα (COS-7, read-out: Efficacy (%) at 10 µmol/L PPARα), the Emax at 10 µM worked out at 76%. The “expression of Pdk4 mRNA” value in the assay on Pdk4 is reported as “increased expression levels of Pdk4”. Moreover, the “PPAR agonist activity profile” value in assay [2] is on record as “pan-PPAR agonist activity”.
